Measurements from article PMC9143577, “Cationic Geminoid Peptide Amphiphiles Inhibit DENV2 Protease, Furin, and Viral Replication” (Molecules, 2022).
Entries after “also recorded” stand apart in the source; their conditions may differ. Where a SMILES comes first, the peptide text is derived from it. The star is where a group is joined. Palmitoyl = CCCCCCCCCCCCCCCC(=O)*; NHhexadecyl = CCCCCCCCCCCCCCCCN*

Experiments:
DENV2 protease = DENV2 protease (Dengue virus type 2, UniProt P14340); assay: biochemical
Method: IC50 values were determined in CDD Vault using the Levenberg–Marquardt algorithm for fitting a Hill equation to dose-response data.
(§1) Enzyme expression and purification
DENV2 Protease Preparation. The enzyme was expressed and purified as previously described (ref. S1). Briefly, the vector with CF40 fused to NS3pro was used for high- level inducible expression of recombinant enzyme, tagged on the N-t erminus with hexahistidine. E. coli strain SG13009 cells were transformed with the expression plasmid and grown in kanamycin at 37 °C until the absorb ance at 600 nm r each ed a v alue of 0.6. Cells were induced for expression by the addition of isopropyl-β-D-thiogalactopyranose to a final concentration of 1 mM and incubated for additional 3 h at 30 °C. The cells were harvested by centrifugation, resuspended in 1 mL of a lysis buffer, subjected to sonication, and centrifuged again. The supernatant was collected and passed through a 2- mL column of nitrilotriacetic acid-agarose (Qiagen) loaded with Ni2+. The column was extensively washed with buffer containing […], and the protein was then eluted from then column in buffer containing 100 mM imidazole.
Elution samples were analyzed by 15% SDS-PAGE and the substrate Z-RR- MCA was used to distinguish the activity of DENV2 protease from that of contaminating bacterial […]
proteases. […]

[1] = system: wildtype DENV2 (DENV2 NGC); format: cell-based, DENV2 New Guinea strain; settings: percentage of infected cells, 2 days after infection; for EC50: LLC-MK2 cells, read-out: DENV Replication in LLC-MK2 Cells EC50
Method: LLC-MK2 (Monkey Rhesus Kidney cells; CCL-7.1) were passaged in assay medium (EMEM (Lonza Cat No: BESP069F) supplemented with 10% heat-inactivated FCS (Lonza), 2% Pen/strep (Gibco), 2% L-Glutamine (Gibco), 2% Hepes (Lonza), and 1% sodium bicarbonate (Lonza)) prior to use in the antiviral assay. Cells were seeded in 96-well plates (10^5 cells/well) in assay medium to be exposed 16–24 h later to compounds and viruses. The plates were incubated at 37 °C/5% CO2 overnight to allow for cell adherence.
Compounds were solubilized in DMSO and evaluated using two-fold serial dilutions (8-points dose-response curves starting at a concentration of 50 µM) in duplicate for the antiviral assays. Compounds were diluted in assay medium at 1× test concentrations. Ribavirin (Sigma Aldrich, Amsterdam, The Netherlands) was evaluated as a positive control compound in the antiviral assays.
DENV2 New Guinea strain was grown in AP-61 insect cells (in-house cell bank) in complete Leibovitz medium containing 1% pen/strep (Gibco), 1% L-glutamin (Gibco), 0.5% Hepes (Lonza), 0.5% sodium bicarbonate (Lonza), and 10% tryptose phosphate for the production of stock virus pools. On the day of cellular infection, an aliquot of virus was removed from the freezer (−80 °C) and allowed to thaw in water in a biological safety cabinet. Virus was diluted into assay medium (10^4 TCID50), and 100 µL of this was added to each well, resulting in a TCID50 of 100. Cells were incubated for 2 h at 37 °C/5% CO2 and washed 3 times with blank assay medium. Directly after washing, 100 µL of the compound dilutions were added to each well.
Each plate contained cell control wells (cells only), virus control wells (cells plus virus), duplicate drug toxicity wells per compound (cells plus drug only), as well as duplicate experimental wells (drug plus cells plus virus).
Virus-infected cells were visualised using a DENV2 immunoperoxidase staining protocol. Two days after infection, cells were inactivated with ethanol 70% for 30 min and washed with PBS. Fixed plates were incubated with PBS containing 0.05% H2O2 for 20 min at 37 °C and washed again 3 times with PBS. Plates were incubated for 1 h with 50 µL monoclonal anti-DENV-2 NS1 antibody (Millipore; diluted 1:500 in EMEM). Samples were washed once with PBS containing 0.05% Tween20 and twice with PBS only. Secondary polyclonal goat anti-mouse IgG HRP (Dako; diluted 1:2000) was added 50 µL per well and incubated for 1 h at 37 °C in the dark. […] Bidest water was added after removal of the substrate solution, and all virus-positive cells per well (marked by brown/red staining) were counted under a microscope. […]

human furin = human furin (Homo sapiens, UniProt P09958); assay: Furin inhibition assay with MCA substrate (Ac-RVRR-MCA); format: biochemical; settings: 0.76 nM furin, pH 7.0, 37 °C, read-out: IC50 (MCA Substrates) Furin
From the text: as §1
DENV2 Protease Preparation. The enzyme was expressed and purified as previously described (ref. S1). […]
subjected to sonication, and centrifuged again. The supernatant was collected and passed […]
Human Furin Preparation. The enzyme was expressed and purified as previously described (ref. S3). Briefly, The PCMV-Fur_S vector containing cDNA […]
Human furin was purifi ed […]
substrate Abz-[…]- EDDnp.

DENV2 replicon = settings: DENV2 HeLa replicon cells treated for 2 days; for inhibition of luciferase activity (DENV2 replicon): 10 µM
Method: (§2) To investigate the effect of geminoids on viral replication, we used HeLa cells containing a DENV2 replicon. Instead of the structural proteins of DENV2, the replicon encodes a luciferase reporter that can be used as a readout for DENV2 protease dependent virus replication. Cell viability was assessed on the same cells using a colourimetric assay based on 3-(4,5-dimethylthiazol-2-yl)-5-(3-carboxymethoxyphenyl)-2H-tetrazolium (MTS) reduction, and by light microscopy. […] The viability of unmodified HeLa cells after treatment with these compounds was also tested in a separate experiment using the Celltiter Blue Viability Assay (Promega, see Supporting Information) in the concentration range of 0.8–50 μM.
(§3) The replicon assay was carried out as described earlier using HeLa cells that contain a stably replicating DENV2 replicon expressing a luciferase reporter gene. The amphiphilic inhibitors were added as concentrated solutions in DMSO; the same amount of DMSO was used as the blank experiment, with the viral inhibitor ribavirin as a positive control. Luciferase activity and cell viability were assessed as described previously.

trypsin = assay: Trypsin inhibition assay with Z-FR-MCA; format: biochemical; settings: 4 nM trypsin, 11.4 μM Z-FR-MCA; 100 mM Tris.HCl, pH 8.0, 10 mM CaCl2; read-out: IC50 (MCA Substrates) Trypsin
Method: The assay was carried out in 100 mM Tris.HCl, 10 mM CaCl2, pH 8.0, with 4 nM enzyme and 11.4 µM Z-FR-MCA substrate.

[2] = Critical micelle concentration by pyrene fluorescence; format: physicochemical; settings: pure water
Method: Pyrene was used as a probe to study the changes in its fluorescence, in particular the ratio (I1/I3) of the intensities I1 and I3 […] 373 and 383 nm, respectively. An abrupt change in this ratio with increasing surfactant concentration points to an increase in hydrophobicity of the environment of the probe corresponding to the formation of aggregates. See Supporting Information for details.
Determ ination of the critical m icelle concentrat ion (CMC)
A solution of 5 mg pyrene in methanol (10 mL) was prepared and diluted 20 times. 50 µ L from the dil uted solution was added to geminoid solutions in water to a final volume of 3 mL. The geminoid samples were made from a stock solution of 500 µ M in water in a concentration range from 5 to 200 µ M. The fluorescence spectra were then measured after 1 hour wi th the […] set to 334 nm and emission range 350- 500 nm, excitation slit […], emission slit […] and at 25 °C. The ratio of the intensities was then plotted against the geminoid concentration, and the CMC is calculated from the intersection point of the best fits to the data points below and above it (Fig ure S5).
(§4) Concentration (µM) Concentration (µM)
Concentration (µM)Concentration (µM) Concentration (µM)Concentration (µM)
(1 picture or pasted object on this page, not shown here)

[3] = system: DENV2 HeLa replicon cells; settings: 2 days, 0.3 to 10 µM
Method: as §2, §3

HeLa cells (wildtype) = assay: Celltiter Blue Viability Assay on unmodified HeLa cells; settings: 24 h, 0.8–50 μM, highest concentration
Method: as §2, §4

human furin, sequence (P09958 108-576 limits assumed): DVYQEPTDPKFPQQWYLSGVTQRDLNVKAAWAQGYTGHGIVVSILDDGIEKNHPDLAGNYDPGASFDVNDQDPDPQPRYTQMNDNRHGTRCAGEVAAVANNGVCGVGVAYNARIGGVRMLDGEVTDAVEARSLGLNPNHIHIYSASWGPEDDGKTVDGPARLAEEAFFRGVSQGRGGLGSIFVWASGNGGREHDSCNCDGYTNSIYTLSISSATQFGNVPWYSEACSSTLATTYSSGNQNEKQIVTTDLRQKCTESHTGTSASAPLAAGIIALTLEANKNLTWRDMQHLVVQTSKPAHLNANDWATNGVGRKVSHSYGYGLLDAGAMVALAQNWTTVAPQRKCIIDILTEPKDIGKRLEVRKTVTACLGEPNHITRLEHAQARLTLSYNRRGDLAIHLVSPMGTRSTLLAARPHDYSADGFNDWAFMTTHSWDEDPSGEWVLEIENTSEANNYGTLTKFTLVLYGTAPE
DENV2 protease, sequence (P14340 1476-1653): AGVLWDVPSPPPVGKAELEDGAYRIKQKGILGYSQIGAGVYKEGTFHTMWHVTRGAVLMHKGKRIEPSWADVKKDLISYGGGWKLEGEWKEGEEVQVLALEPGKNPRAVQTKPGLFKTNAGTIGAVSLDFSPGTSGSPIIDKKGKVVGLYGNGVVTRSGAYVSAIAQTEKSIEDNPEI
DENV2 protease, sequence (P14340 1398-1437): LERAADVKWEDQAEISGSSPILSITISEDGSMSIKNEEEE

| SMILES | IC50 (DENV2 protease) | EC50 [1] | IC50 (human furin) | reduction of luciferase activity (DENV2 replicon; 3 µM) | inhibition of luciferase activity (DENV2 replicon) (DENV2 replicon) | IC50 (trypsin) | CMC (Critical Micelle Concentration) [2] | DENV Replication in LLC-MK2 Cells EC50 [1] | cell viability (MTS assay), relative to DMSO control [3] | toxicity in Celltiter Blue Viability Assay (HeLa cells (wildtype)) |
| --- | --- | --- | --- | --- | --- | --- | --- | --- | --- | --- |
| CCCCCCCCCCCCCCCCNC(=O)[C@H](CCCCN)NC(=O)[C@H](CCCCN)NC(=O)CCCCCCCCCCCCCCC [Compound 1] | 4.25 ± 0.27 µM |  |  |  |  |  |  |  |  |  |
| CCCCCCCCCCCCCCCCNC(=O)[C@H](CCCCN)NC(=O)[C@H](C)NC(=O)[C@H](CCCCN)NC(=O)CCCCCCCCCCCCCCC [Compound 2a, C15H31C(O)-Lys-(Ala)-Lys-NHC16H33.2TFA] |  | 4.1 ± 1.5 µM | 3570 ± 180 nM | 39% | 62% | 17.2 ± 0.66 µM | 48 to 58 µM |  |  |  |
| CCCCCCCCCCCCCCCCNC(=O)[C@H](CCCCN)NC(=O)[C@H](C)NC(=O)[C@H](C)NC(=O)[C@H](CCCCN)NC(=O)CCCCCCCCCCCCCCC [Compound 2b, C15H31C(O)-Lys-(Ala)2-Lys-NHC16H33.2TFA] (Palmitoyl-KAAK-NHhexadecyl) |  | 3.1 ± 0.7 µM | 2140 ± 100 nM |  | 47% | 20.9 ± 0.34 µM | 41 µM |  |  |  |
| CCCCCCCCCCCCCCCCNC(=O)[C@H](CCCCN)NC(=O)CNC(=O)[C@H](CCCCN)NC(=O)CCCCCCCCCCCCCCC [Compound 3a] |  | 12.7 ± 1.1 µM |  |  | 38% | 41 ± 2 µM | 55 to 72 µM |  |  |  |
| CCCCCCCCCCCCCCCCNC(=O)[C@H](CCCCN)NC(=O)CNC(=O)CNC(=O)[C@H](CCCCN)NC(=O)CCCCCCCCCCCCCCC [Compound 3b] (Palmitoyl-KGGK-NHhexadecyl) |  |  |  |  |  |  | 30 µM | not active | considerable cytotoxicity | slight toxicity; also recorded: slight toxicities |
